Data taken from the NIST ThermoML archive (doi:10.1016/j.jct.2008.10.010).

Assay: molar heat capacity at constant pressure; xn = mol fraction of the nth substance listed
Conditions: 101.3 kPa, Liquid, Small sample (50 mg) DSC

CCC(C)(C)O [2-methylbutan-2-ol] + CCCCCCC
Conditions	molar heat capacity at constant pressure [J/K/mol]
284.14 K, x1 = 0.0061	220.41
284.14 K, x1 = 0.0249	226.02
284.14 K, x1 = 0.0494	229.4
284.14 K, x1 = 0.1999	234.97
284.14 K, x1 = 0.4051	235.79
284.14 K, x1 = 0.5981	234.72
284.14 K, x1 = 0.7015	233.37
284.14 K, x1 = 0.9139	231.9
284.14 K, x1 = 0.9609	232.4
284.16 K, x1 = 0.1	232.58
284.16 K, x1 = 0.1547	234.25
284.16 K, x1 = 0.2993	235.98
284.16 K, x1 = 0.4986	235.43
284.18 K, x1 = 0.8023	232.34
285.15 K, x1 = 0.0061	220.65
285.15 K, x1 = 0.0249	226.27
285.15 K, x1 = 0.0494	229.86
285.15 K, x1 = 0.1	233.16
285.15 K, x1 = 0.1547	234.99
285.15 K, x1 = 0.1999	235.77
285.15 K, x1 = 0.2993	236.86
285.15 K, x1 = 0.4051	236.78
285.15 K, x1 = 0.4986	236.52
285.15 K, x1 = 0.5981	235.88
285.15 K, x1 = 0.7015	234.58
285.15 K, x1 = 0.8023	233.57
285.15 K, x1 = 0.9609	233.54
285.51 K, x1 = 0.9139	233.61
286.16 K, x1 = 0.0061	220.9
286.16 K, x1 = 0.0249	226.64
286.16 K, x1 = 0.0494	230.34
286.16 K, x1 = 0.1	233.84
286.16 K, x1 = 0.1547	235.78
286.16 K, x1 = 0.1999	236.66
286.16 K, x1 = 0.2993	237.91
286.16 K, x1 = 0.4051	237.9
286.16 K, x1 = 0.4986	237.63
286.16 K, x1 = 0.5981	237.03
286.16 K, x1 = 0.7015	235.81
286.16 K, x1 = 0.8023	234.67
286.16 K, x1 = 0.9139	234.27
286.16 K, x1 = 0.9609	234.56
287.14 K, x1 = 0.0061	221.16
287.14 K, x1 = 0.0249	226.92
287.14 K, x1 = 0.0494	230.72
287.14 K, x1 = 0.1	234.39
287.14 K, x1 = 0.1547	236.4
287.14 K, x1 = 0.1999	237.42
287.14 K, x1 = 0.2993	238.78
287.14 K, x1 = 0.4051	238.87
287.14 K, x1 = 0.4986	238.65
287.14 K, x1 = 0.5981	238.11
287.14 K, x1 = 0.7015	236.94
287.14 K, x1 = 0.8023	235.73
287.14 K, x1 = 0.9139	235.37
287.14 K, x1 = 0.9609	235.45
288.15 K, x1 = 0.0061	221.55
288.15 K, x1 = 0.0249	227.34
288.15 K, x1 = 0.0494	231.29
288.15 K, x1 = 0.1	235.13
288.15 K, x1 = 0.1547	237.25
288.15 K, x1 = 0.1999	238.28
288.15 K, x1 = 0.2993	239.83
288.15 K, x1 = 0.4051	240.03
288.15 K, x1 = 0.4986	239.84
288.15 K, x1 = 0.5981	239.38
288.15 K, x1 = 0.7015	238.26
288.15 K, x1 = 0.8023	237.01
288.15 K, x1 = 0.9139	236.54
288.15 K, x1 = 0.9609	236.62
289.14 K, x1 = 0.0061	221.82
289.14 K, x1 = 0.0249	227.63
289.14 K, x1 = 0.0494	231.74
289.14 K, x1 = 0.1	235.73
289.14 K, x1 = 0.1547	237.99
289.14 K, x1 = 0.1999	239.11
289.14 K, x1 = 0.2993	240.71
289.14 K, x1 = 0.4051	241.03
289.14 K, x1 = 0.4986	240.91
289.14 K, x1 = 0.5981	240.51
289.14 K, x1 = 0.7015	239.53
289.14 K, x1 = 0.8023	238.27
289.14 K, x1 = 0.9139	237.62
289.14 K, x1 = 0.9609	237.61
290.14 K, x1 = 0.0061	222.02
290.14 K, x1 = 0.0249	227.88
290.14 K, x1 = 0.0494	232.1
290.14 K, x1 = 0.1	236.25
290.14 K, x1 = 0.1547	238.66
290.14 K, x1 = 0.1999	239.89
290.14 K, x1 = 0.2993	241.62
290.14 K, x1 = 0.4051	242.04
290.14 K, x1 = 0.4986	241.98
290.14 K, x1 = 0.5981	241.64
290.14 K, x1 = 0.7015	240.72
290.14 K, x1 = 0.8023	239.53
290.14 K, x1 = 0.9139	238.75
290.14 K, x1 = 0.9609	238.68
291.15 K, x1 = 0.0061	222.4
291.15 K, x1 = 0.0249	228.24
291.15 K, x1 = 0.0494	232.63
291.15 K, x1 = 0.1	236.91
291.15 K, x1 = 0.1547	239.46
291.15 K, x1 = 0.1999	240.73
291.15 K, x1 = 0.2993	242.6
291.15 K, x1 = 0.4051	243.13
291.15 K, x1 = 0.4986	243.16
291.15 K, x1 = 0.5981	242.84
291.15 K, x1 = 0.7015	241.97
291.15 K, x1 = 0.8023	240.74
291.15 K, x1 = 0.9139	239.92
291.15 K, x1 = 0.9609	239.8
292.14 K, x1 = 0.0061	222.7
292.14 K, x1 = 0.0494	233.02
292.14 K, x1 = 0.1	237.52
292.14 K, x1 = 0.1547	240.13
292.14 K, x1 = 0.1999	241.49
292.14 K, x1 = 0.2993	243.55
292.14 K, x1 = 0.4051	244.19
292.14 K, x1 = 0.4986	244.28
292.14 K, x1 = 0.5981	243.93
292.14 K, x1 = 0.7015	243.17
292.14 K, x1 = 0.8023	241.93
292.14 K, x1 = 0.9139	241.07
